Reference: publication PMC7848861 (Frontiers in Microbiology, 2021)
Peptide text beside a SMILES is read from it.

Experiments:
[1] = Half-life of Angie1 in human serum; assay type: in vitro ADME; conditions: human serum (Lonza 14-490E) spiked with 10 μM, 37°C, aliquots 5–120 min, LC-MS (Orbitrap Elite) signal area, triplicates, GraphPad Prism
Experimental: Human serum (14-490E, Lonza, Basel, Switzerland) was spiked with 10 μM Angie1 and incubated at 37°C for 2 h in triplicates. After 5, 10, 20, 30, 45, 60, 90, and 120 min; aliquots (5 μl) were diluted with 1.5 ml ice cold TFA (0.1%). Around 15 μl of each sample was analyzed using an Orbitrap Elite system (Thermo Fisher Scientific) as described above. XCalibur Qual Browser (Thermo Fisher Scientific) was used for visualization of the total ion chromatograms and spectra, as well as for signal area calculation. The theoretical spectrum of Angie1 and its degradation products were generated and the highest intensity signals were used as reference for detecting Angie1 and its degradation products. Plot graphs (signal area vs. time) and half-lives were calculated with GraphPad Prism 8.0 (GraphPad, La Jolla, CA, United States).

Solubility in water = assay type: physicochemical
human macrophages = assay: Uptake by macrophages (flow cytometry, confocal laser microscopy); assay type: cell-based; conditions: Atto647N-labeled peptide, 54 μM, 18 h, alone or incorporated into liposomes; flow cytometry and confocal microscopy, three donors
Experimental: For investigation of Angie1 internalization, 1 × 10^6 macrophages were incubated with Angie1-Atto647N or Angie1-Atto647N Lip for 18 h. Samples were then analyzed using a FACS Calibur (BD Biosciences) with FlowJo v10.4.1 (BD). For confocal laser microscopy, 0.1 × 10^6 macrophages were seeded in 200 μl M-SFM in an eight-chamber slide (Thermo Fisher) and incubated with Angie1-Atto 647 N (54 μM) or Angie1-Atto 647 N Lip (54 μM) or Angiogenin-Atto647N Lip. After overnight incubation, cells were fixed (4% PFA, Sigma-Aldrich), followed by blocking in 2% BSA. Subsequently macrophages were labeled with major histocompatibility antigen class II antibodies (HLA-DR; 1:200, clone L243, Leinco, St. Louis, MS, United States) detected by Cy2-conjugated goat anti-mouse antibodies (1:200, Dianova, Hamburg, Germany). Cell nuclei were stained with DAPI (1:200, Sigma-Aldrich) diluted in 1% BSA and 0.1% Triton X-100 in PBS (all Sigma-Aldrich). Images were acquired using the inverted laser scanning confocal microscope LSM 710 (Zeiss, Oberkochen, Germany). Image processing was performed using ImageJ software (v 1.52c).

zebrafish embryos = assay: Toxicity against zebrafish embryos; assay type: in vivo; conditions: 1, 10, and 100 μM, exposure 24 h from 24 hpf, scored at 48 hpf, n = 60 embryos each group
Experimental: Wild-type zebrafish embryos were dechorionated at 24 h post fertilization (hpf) using digestion with 1 mg/ml pronase (Sigma) in E3 medium (83 μM NaCl, 2.8 μM KCl, 5.5 μM CaCl2, and 5.5 μM MgSO4). Embryos were exposed for 24 h, in groups of three, to 100 μl of E3 medium containing Angie1 at 1, 10, and 100 μM. Each concentration was tested in two independent assays, each of which was performed on 10 × 3 embryos. The peptide solvent (PBS), diluted in E3, was used as negative control at the same amount as introduced by the highest peptide concentration. As positive control for acute toxicity/cytotoxicity the pleurocidin antimicrobial peptide NRC-03 ([…]-[…]-NH2) was used at a concentration of 6 μM as described ([Morash et al., 2011]). Abamectin at a concentration of 3.125 μM was used as positive control for neurotoxicity ([Raftery et al., 2014]). At 48 hpf (after 24 h of incubation) embryos were scored in a stereomicroscope for signs of acute toxicity/cytotoxicity (lysis and/or necrosis), developmental toxicity (delay and/or malformations), or cardiotoxicity (heart edema and/or reduced or absent circulation). Each embryo was also touched with a needle and reduced or absent touch response (escape movements) was evaluated as signs of neurotoxicity if and only if no signs of acute toxicity were present in the same embryo. […]

[2] = test system: primary human macrophages; assay: Toxicity of peptides against macrophages (PrestoBlue); assay type: cell-based; conditions: three independent experiments
Experimental: Human peripheral blood mononuclear cells (PBMC) were isolated by density gradient centrifugation (Ficoll-Paque™ Plus; GE Healthcare) of buffy coat preparations from anonymous donors (Institute of Transfusion Medicine, Ulm University). Monocytes were isolated from PBMCs by adherence on tissue culture treated plastic flasks (Falcon, Corning, NY, United States). Monocyte-derived macrophages were generated by incubation with granulocyte-macrophage colony-stimulating factor (10 ng/ml; Miltenyi Biotec, Bergisch Gladbach, Germany) in Macrophage-Serum Free Medium (M-SFM; Gibco, ThermoFisher Scientific, Schwerte, Germany) for 6 days.
About 1 × 10^5 macrophages were incubated with peptides for 18 h in a 96-well plate, followed by addition of 10% PrestoBlue™ (Thermo Fisher) for 20 min. The non-fluorescent resazurin-based PrestoBlue is reduced to fluorescent resorufin by mitochondrial enzymes of viable cells ([Xu et al., 2015]). The fluorescence intensity (FI) was measured at λex 560 nm and λem 600 nm using Infinite 200 PRO (Tecan, Männedorf, Suisse) plate reader. Cell viability (%) was calculated using the following formula where the ratio of the FIs of the sample and the untreated control is calculated after subtracting the background FI introduced by the same volume of cell culture medium: [FI (sample)-FI (background)]/[FI (untreated control)-FI (background)] × 100.

[3] = test system: primary human monocytes or macrophages; assay: Chemotaxis or cytokine release by monocytes or macrophages (not shown); assay type: cell-based; conditions: data not shown
[4] = test system: intracellular Mtb in primary human macrophages; assay type: cell-based, Mycobacterium tuberculosis; conditions: 10 μM, 4 days, MOI 5, CFU on 7H11 after 21 days; diluent control 9.5-fold; p < 0.05; six donors
[5] = test system: Mycobacterium tuberculosis H37Rv (extracellular Mtb); assay type: cell-based; conditions: 100 μM peptide; 2 × 10^6 Mtb, 96 h incubation, 3H-Uracil uptake vs untreated control; mean ± SD, triplicates of three independent experiments

Row | Molecule | Half-life in human serum [1] [min] | half-life at 10 μM [1] [min] | Solubility in water (Solubility in water) | Uptake by macrophages (human macrophages) | Toxicity to zebrafish embryos (acute/cyto-, cardio-, developmental, neurotoxicity) (zebrafish embryos) | Toxicity for primary human macrophages ([2]; Angie1 at 27, 54, or 108 μM, PrestoBlue, 24 h) | Induction of chemotaxis or cytokine release [3] | Multiplication of intracellular Mtb (n-fold growth d4 vs d0) [4] [fold] | Antimicrobial activity against extracellular Mtb [5] [%] | Viability of macrophages ([2]; Angiogenin 10 μM, 18 h (legend: 24 h), PrestoBlue resazurin metabolism)
1 | CC[C@H](C)[C@H](NC(=O)[C@H](C)NC(=O)[C@H](CCCCN)NC(=O)[C@@H](NC(=O)[C@H](CO)NC(=O)[C@@H](NC(=O)[C@H](CCCCN)NC(=O)[C@H](CC(N)=O)NC(=O)CNC(=O)[C@H](Cc1c[nH]cn1)NC(=O)[C@@H](NC(=O)[C@H](Cc1ccccc1)NC(=O)[C@@H](NC(=O)[C@H](CC(N)=O)NC(=O)[C@@H](NC(=O)[C@H](C)NC(=O)[C@@H](N)CCCCN)[C@@H](C)CC)[C@@H](C)O)[C@@H](C)CC)[C@@H](C)CC)[C@@H](C)CC)C(=O)O [Angie1] (H-KAINTFIHGNKISIKAI-OH) | 3 | 3.06 | soluble in water | equally efficient | no toxicity | not toxic |  |  |  | 
2 | Angiogenin: endogenous 123 amino acid, 14.1 kDa protein identified in hemofiltrate; tested as synthetic Angiogenin |  |  |  |  |  |  | do not induce chemotaxis or cytokine release | 5.2 | 94 ± 2 | did not affect the viability
